Reference: patent US12404232B2, “Compounds and compositions for intracellular delivery of therapeutic agents” (ModernaTX, Inc., priority 2015, dated 2025)

Tests used:
mice [1] = experiment: Luc expression (total flux) after intramuscular administration; type: in vivo; conditions: 6 hours after intramuscular administration, Luc mRNA and H10 mRNA
mice [2] = experiment: Cytokine induction (IL-6, IP-10) in mice after intravenous administration; type: in vivo; parameters: IL-6 / IP-10: unit not given here; conditions: 0.5 mpk, 6 hours
Method in brief: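 Nanoparticle compositions given intravenously to mice at 0.5 mpk; serum cytokine concentrations measured at 6 hours, with MC3 formulation and PBS as comparators.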

rat = experiment: Clinical chemistry and hematology in rat after intravenous administration; type: in vivo; parameters: unit not given here; conditions: 2 mpk, 48 h post dose
Protocol: Sample formulations of nanoparticle compositions including different lipids were administered intravenously to rat at a dose of 2 mpk. The expression of various clinical markers was evaluated at 48 h post dose and compared to that induced by administration of MC3 formulations or phosphate buffered saline (PBS).
(§1) Table 19 summarizes the hEPO expression, IP-10 induction, liver and spleen levels, and alanine aminotransferase (ALT) and aspartate aminotransferase (AST) measured upon intravenous administration of formulations including Compounds 48, 49, and 50 to rat at 0.2 and 2 mpk and hEPO mRNA. hEPO concentrations were measured 6 hours after administration, while cytokine induction and liver and spleen levels were measured 48 hours after administration. hEPO and IP-10 concentrations are presented in pg/ml, while liver levels are provided in ng/g. ALT and AST levels are presented in international units.

rats [3] = experiment: Cytokine induction (IP-10) in rats after intravenous administration; type: in vivo; conditions: rat, 6 hours after administration of hEPO nanoparticle compositions, 2.0 mpk
Protocol: The expression of hEPO and cytokine induction in rats intravenously administered a nanoparticle composition at a dose of 2.0 mpk was measured at 6 h.
as §1

rats [4] = experiment: Residual lipid levels in liver and spleen of rats (UPLC-MS quantification); type: in vivo, rat; conditions: rats, 2 mpk, 48 h; assuming 300 g rat and 15 g liver
Protocol: At 48 h liver tissue was harvested for lipid quantification. To pre-weighed tissues, Milli-Q water was added (900 μL water per 100 mg tissue). Tissues were homogenized using an Omni probe homogenizer until uniform. 50 μL of samples and matrix calibration standards were aliquoted into a 96-well plate. 50 μL of blank matrix for matrix blanks and control blanks were aliquoted. 400 μL IS spiking solution were manually added to all samples except matrix blanks. 400 μL of 50:50 ACN:IPA were manually added to matrix blanks. The plate was covered and the samples vortexed and centrifuged for 5 minutes at >3000 rpm. 200 μL of the samples were transferred into a clean 96-well plate for analysis. Samples were analyzed on a Waters Acquity UPLC using a Higgins Analytical Clipeus C8 column ([…], 30×2.1 mm) and a gradient of either 70-95% or 60-95% (Mobile Phase A: 5 mM ammonium formate in 50:50:1 H2O:MeOH:formic acid; Mobile Phase B: 5 mM ammonium formate in 100:1 MeOH:formic acid) over 1.3 min at 1.2 mL/min (column temperature 55° C.). Detection was based on electrospray ionization (ESI) in positive mode using a Sciex API5500 Mass Spectrometer.
The expression of hEPO in rats intravenously administered a nanoparticle composition at a dose of 0.2 mpk or 2.0 mpk was measured at 6 hours. Table 16 summarize the ratio of hEPO expression levels using various nanoparticle compositions as compared to the hEPO expression level using MC3 formulation and the lipid levels in the liver measured 48 hours after administration, as described above. Tables 17 and 18 summarize the lipid levels in the liver and spleen measured 48 hours after administration of Compounds 28, 33, 53, and 54. Liver and spleen levels represent the average values calculated for 3 rats in each group. As is shown in Tables 17 and 18, less than 10% of Compounds 28, 33, 53, and 54 remained in the liver after 48 hours, while greater than 60% of MC3 remained.
as §1
The expression of hEPO induced by intravenous administration to rats of nanoparticle compositions at various doses was measured at 2, 4, 6, 8, 24, and 48 hour time points. FIGS. 3-6 respectively summarize the hEPO expression measured upon intravenous administration of formulations including Compounds 26, 18, 25, and MC3 to rat at various doses. The lipid levels of Compound 26 in the liver after 48 hours were about 19%.
The expression of hEPO and lipid levels in the liver and spleen in rats intravenously administered a nanoparticle composition at a dose of 0.2 mpk was measured at various timepoints. Compounds 18 and 25 were selected for comparison with MC3. Lipids were formulated according to the standard MC3 formulation described above. Rats were administered intravenously a single 0.2 mpk dose and expression monitored at 0.25, 0.5, 1, 2, 4, 8, 24, and 48 hours after administration.

SMILES | Total flux (p/s) 0.001 mpk Dose (mice [1]) [p/s] | Total flux (p/s) 0.01 mpk Dose (mice [1]) [p/s] | IL-6 (mice [2]) | IP-10 (mice [2]) | Alanine aminotransferase (Concentration) (rat) | Aspartate aminotransferase (Concentration) (rat) | Lymphocytes (Concentration) (rat) | Monocytes (Concentration) (rat) | Neutrophils (Concentration) (rat) | IP-10 (rats [3]) [pg/mL] | % Lipid Remaining in liver, 48 h* 2 mpk (rats [4]) [%]
CCCCCCCCCOC(=O)CCCCCCCN(CCO)CCCCCCCOC(=O)C(CCCCCCCC)CCCCCCCC [Compound 30, 7-((2-Hydroxyethyl)(8-(nonyloxy)-8-oxooctyl)amino)heptyl 2-octyldecanoate] | 2.47E+06 | 3.77E+07 | 152.51 | 1638.77 | 56 | 95 | 10408.5 | 877 | 3195 | 214.5 | <0.01
CCCCCCCCCN(CCO)CCCCCCCC(=O)OC(CCCCCCCC)CCCCCCCC [Compound 3, Heptadecan-9-yl 8-((2-hydroxyethyl)(nonyl)amino)octanoate] | 3.58E+06 | 4.95E+07 |  |  | 53.5 | 87.5 | 12051 | 2103 | 3388.5 | 542 | 14
CCCCCC/C=C\COC(=O)CCCCCCCN(CCO)CCCCCCCC(=O)OC(CCCCCCCC)CCCCCCCC [Compound 24, Heptadecan-9-yl (Z)-8_((2-hydroxyethyl) (8-(non-2-en-1-yloxy)-8-oxooctyl)amino)octanoate] | 3.78E+06 | 3.97E+07 | 163.53 | 1172.93 | 51.5 | 90 | 14100 | 1834 | 1790.5 | 323.5 | 0.016
